{"source": "PubChem BioAssay (NCI)", "experiment_in_all_cases": "NCI-60 cell line screen, 48 h", "key": {"[1]": {"tested_on": "786-0 renal"}, "[2]": {"tested_on": "A498 renal"}, "[3]": {"tested_on": "A549 NSCLC"}, "[4]": {"tested_on": "ACHN renal"}, "[5]": {"tested_on": "CCRF-CEM leukemia"}, "[6]": {"tested_on": "COLO 205 colon"}, "[7]": {"tested_on": "DLD-1 colon"}, "[8]": {"tested_on": "DMS 114 small cell lung"}, "[9]": {"tested_on": "DMS 273 small cell lung"}, "[10]": {"tested_on": "EKVX NSCLC"}, "[11]": {"tested_on": "HCC-2998 colon"}, "[12]": {"tested_on": "HCT-116 colon"}, "[13]": {"tested_on": "HCT-15 colon"}, "[14]": {"tested_on": "HL-60(TB) leukemia"}, "[15]": {"tested_on": "HOP-18 NSCLC"}, "[16]": {"tested_on": "HOP-62 NSCLC"}, "[17]": {"tested_on": "HOP-92 NSCLC"}, "[18]": {"tested_on": "HT29 colon"}, "[19]": {"tested_on": "IGROV1 ovarian"}, "[20]": {"tested_on": "K-562 leukemia"}, "[21]": {"tested_on": "KM12 colon"}, "[22]": {"tested_on": "KM20L2 colon"}, "[23]": {"tested_on": "LOX IMVI melanoma"}, "[24]": {"tested_on": "LXFL 529 NSCLC"}, "[25]": {"tested_on": "M14 melanoma"}, "[26]": {"tested_on": "M19-MEL melanoma"}, "[27]": {"tested_on": "MALME-3M melanoma"}, "[28]": {"tested_on": "MOLT-4 leukemia"}, "[29]": {"tested_on": "NCI-H23 lung"}, "[30]": {"tested_on": "NCI-H460 lung"}, "[31]": {"tested_on": "OVCAR-3 ovarian"}, "[32]": {"tested_on": "OVCAR-4 ovarian"}, "[33]": {"tested_on": "OVCAR-8 ovarian"}, "[34]": {"tested_on": "RPMI-8226 leukemia"}, "[35]": {"tested_on": "RXF 393 renal"}, "[36]": {"tested_on": "SF-295 CNS"}, "[37]": {"tested_on": "SF-539 CNS"}, "[38]": {"tested_on": "SK-MEL-2 melanoma"}, "[39]": {"tested_on": "SK-OV-3 ovarian"}, "[40]": {"tested_on": "SN12C renal"}, "[41]": {"tested_on": "SNB-19 CNS"}, "[42]": {"tested_on": "SW-620 colon"}, "[43]": {"tested_on": "TK-10 renal"}, "[44]": {"tested_on": "U251 CNS"}, "[45]": {"tested_on": "UACC-257 melanoma"}, "[46]": {"tested_on": "UACC-62 melanoma"}, "[47]": {"tested_on": "UO-31 renal"}, "[48]": {"tested_on": "NCI-H226 lung"}, "[49]": {"tested_on": "NCI-H522 lung"}, "[50]": {"tested_on": "OVCAR-5 ovarian"}, "[51]": {"tested_on": "SF-268 CNS"}, "[52]": {"tested_on": "SK-MEL-28 melanoma"}, "[53]": {"tested_on": "SK-MEL-5 melanoma"}, "[54]": {"tested_on": "SNB-75 CNS"}, "[55]": {"tested_on": "SR leukemia"}, "[56]": {"tested_on": "XF 498 CNS"}}, "note": "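Grown in 96-well plates, cells were treated for 48 hours with each compound at five concentrations. Insufficient inhibition: endpoint recorded as highest concentration tested. At the TGI there is no net growth.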", "data": [{"molecule": "CN1NC(=Nc2ccccc2)Sc2c1cnn(-c1ccccc1)c2=O", "values": [{"measurement": "TGI", "setting": "[1]", "value": "> 100", "unit": "µM"}, {"measurement": "TGI", "setting": "[2]", "value": "> 100", "unit": "µM"}, {"measurement": "TGI", "setting": "[3]", "value": "> 100", "unit": "µM"}, {"measurement": "TGI", "setting": "[4]", "value": "> 100", "unit": "µM"}, {"measurement": "TGI", "setting": "[5]", "value": "> 100", "unit": "µM"}, {"measurement": "TGI", "setting": "[6]", "value": "> 100", "unit": "µM"}, {"measurement": "TGI", "setting": "[7]", "value": "> 100", "unit": "µM"}, {"measurement": "TGI", "setting": "[8]", "value": "> 100", "unit": "µM"}, {"measurement": "TGI", "setting": "[9]", "value": "> 100", "unit": "µM"}, {"measurement": "TGI", "setting": "[10]", "value": "> 100", "unit": "µM"}, {"measurement": "TGI", "setting": "[11]", "value": "> 100", "unit": "µM"}, {"measurement": "TGI", "setting": "[12]", "value": "> 100", "unit": "µM"}, {"measurement": "TGI", "setting": "[13]", "value": "> 100", "unit": "µM"}, {"measurement": "TGI", "setting": "[14]", "value": "> 100", "unit": "µM"}, {"measurement": "TGI", "setting": "[15]", "value": "> 100", "unit": "µM"}, {"measurement": "TGI", "setting": "[16]", "value": "> 100", "unit": "µM"}, {"measurement": "TGI", "setting": "[17]", "value": "> 100", "unit": "µM"}, {"measurement": "TGI", "setting": "[18]", "value": "> 100", "unit": "µM"}, {"measurement": "TGI", "setting": "[19]", "value": "> 100", "unit": "µM"}, {"measurement": "TGI", "setting": "[20]", "value": "> 100", "unit": "µM"}, {"measurement": "TGI", "setting": "[21]", "value": "> 100", "unit": "µM"}, {"measurement": "TGI", "setting": "[22]", "value": "> 100", "unit": "µM"}, {"measurement": "TGI", "setting": "[23]", "value": "> 100", "unit": "µM"}, {"measurement": "TGI", "setting": "[24]", "value": "> 100", "unit": "µM"}, {"measurement": "TGI", "setting": "[25]", "value": "> 100", "unit": "µM"}, {"measurement": "TGI", "setting": "[26]", "value": "> 100", "unit": "µM"}, {"measurement": "TGI", "setting": "[27]", "value": "> 100", "unit": "µM"}, {"measurement": "TGI", "setting": "[28]", "value": "> 100", "unit": "µM"}, {"measurement": "TGI", "setting": "[29]", "value": "> 100", "unit": "µM"}, {"measurement": "TGI", "setting": "[30]", "value": "> 100", "unit": "µM"}, {"measurement": "TGI", "setting": "[31]", "value": 90.6, "unit": "µM"}, {"measurement": "TGI", "setting": "[32]", "value": "> 100", "unit": "µM"}, {"measurement": "TGI", "setting": "[33]", "value": "> 100", "unit": "µM"}, {"measurement": "TGI", "setting": "[34]", "value": "> 100", "unit": "µM"}, {"measurement": "TGI", "setting": "[35]", "value": "> 100", "unit": "µM"}, {"measurement": "TGI", "setting": "[36]", "value": "> 100", "unit": "µM"}, {"measurement": "TGI", "setting": "[37]", "value": "> 100", "unit": "µM"}, {"measurement": "TGI", "setting": "[38]", "value": "> 100", "unit": "µM"}, {"measurement": "TGI", "setting": "[39]", "value": "> 100", "unit": "µM"}, {"measurement": "TGI", "setting": "[40]", "value": "> 100", "unit": "µM"}, {"measurement": "TGI", "setting": "[41]", "value": "> 100", "unit": "µM"}, {"measurement": "TGI", "setting": "[42]", "value": "> 100", "unit": "µM"}, {"measurement": "TGI", "setting": "[43]", "value": "> 100", "unit": "µM"}, {"measurement": "TGI", "setting": "[44]", "value": "> 100", "unit": "µM"}, {"measurement": "TGI", "setting": "[45]", "value": "> 100", "unit": "µM"}, {"measurement": "TGI", "setting": "[46]", "value": "> 100", "unit": "µM"}, {"measurement": "TGI", "setting": "[47]", "value": "> 100", "unit": "µM"}]}, {"molecule": "O=C1OC2(OC2c2ccccc2)c2ccccc21", "note": "(centres undefined)", "values": [{"measurement": "TGI", "setting": "[1]", "value": "> 100", "unit": "µM"}, {"measurement": "TGI", "setting": "[3]", "value": "> 100", "unit": "µM"}, {"measurement": "TGI", "setting": "[4]", "value": "> 100", "unit": "µM"}, {"measurement": "TGI", "setting": "[5]", "value": "> 100", "unit": "µM"}, {"measurement": "TGI", "setting": "[6]", "value": "> 100", "unit": "µM"}, {"measurement": "TGI", "setting": "[7]", "value": "> 100", "unit": "µM"}, {"measurement": "TGI", "setting": "[8]", "value": 11, "unit": "µM"}, {"measurement": "TGI", "setting": "[9]", "value": "> 100", "unit": "µM"}, {"measurement": "TGI", "setting": "[10]", "value": "> 100", "unit": "µM"}, {"measurement": "TGI", "setting": "[11]", "value": "> 100", "unit": "µM"}, {"measurement": "TGI", "setting": "[12]", "value": "> 100", "unit": "µM"}, {"measurement": "TGI", "setting": "[13]", "value": "> 100", "unit": "µM"}, {"measurement": "TGI", "setting": "[14]", "value": "> 100", "unit": "µM"}, {"measurement": "TGI", "setting": "[16]", "value": "> 100", "unit": "µM"}, {"measurement": "TGI", "setting": "[17]", "value": "> 100", "unit": "µM"}, {"measurement": "TGI", "setting": "[18]", "value": "> 100", "unit": "µM"}, {"measurement": "TGI", "setting": "[19]", "value": "> 100", "unit": "µM"}, {"measurement": "TGI", "setting": "[20]", "value": "> 100", "unit": "µM"}, {"measurement": "TGI", "setting": "[21]", "value": "> 100", "unit": "µM"}, {"measurement": "TGI", "setting": "[22]", "value": "> 100", "unit": "µM"}, {"measurement": "TGI", "setting": "[23]", "value": "> 100", "unit": "µM"}, {"measurement": "TGI", "setting": "[24]", "value": "> 100", "unit": "µM"}, {"measurement": "TGI", "setting": "[25]", "value": "> 100", "unit": "µM"}, {"measurement": "TGI", "setting": "[26]", "value": "> 100", "unit": "µM"}, {"measurement": "TGI", "setting": "[27]", "value": "> 100", "unit": "µM"}, {"measurement": "TGI", "setting": "[28]", "value": "> 100", "unit": "µM"}, {"measurement": "TGI", "setting": "[48]", "value": "> 100", "unit": "µM"}, {"measurement": "TGI", "setting": "[29]", "value": "> 100", "unit": "µM"}, {"measurement": "TGI", "setting": "[30]", "value": "> 100", "unit": "µM"}, {"measurement": "TGI", "setting": "[49]", "value": "> 100", "unit": "µM"}, {"measurement": "TGI", "setting": "[31]", "value": "> 100", "unit": "µM"}, {"measurement": "TGI", "setting": "[50]", "value": "> 100", "unit": "µM"}, {"measurement": "TGI", "setting": "[33]", "value": "> 100", "unit": "µM"}, {"measurement": "TGI", "setting": "[34]", "value": "> 100", "unit": "µM"}, {"measurement": "TGI", "setting": "[35]", "value": "> 100", "unit": "µM"}, {"measurement": "TGI", "setting": "[51]", "value": "> 100", "unit": "µM"}, {"measurement": "TGI", "setting": "[37]", "value": "> 100", "unit": "µM"}, {"measurement": "TGI", "setting": "[38]", "value": "> 100", "unit": "µM"}, {"measurement": "TGI", "setting": "[52]", "value": "> 100", "unit": "µM"}, {"measurement": "TGI", "setting": "[53]", "value": "> 100", "unit": "µM"}, {"measurement": "TGI", "setting": "[39]", "value": "> 100", "unit": "µM"}, {"measurement": "TGI", "setting": "[40]", "value": "> 100", "unit": "µM"}, {"measurement": "TGI", "setting": "[41]", "value": "> 100", "unit": "µM"}, {"measurement": "TGI", "setting": "[54]", "value": "> 100", "unit": "µM"}, {"measurement": "TGI", "setting": "[55]", "value": "> 100", "unit": "µM"}, {"measurement": "TGI", "setting": "[42]", "value": "> 100", "unit": "µM"}, {"measurement": "TGI", "setting": "[43]", "value": "> 100", "unit": "µM"}, {"measurement": "TGI", "setting": "[44]", "value": "> 100", "unit": "µM"}, {"measurement": "TGI", "setting": "[45]", "value": "> 100", "unit": "µM"}, {"measurement": "TGI", "setting": "[46]", "value": "> 100", "unit": "µM"}, {"measurement": "TGI", "setting": "[47]", "value": "> 100", "unit": "µM"}, {"measurement": "TGI", "setting": "[56]", "value": "> 100", "unit": "µM"}]}]}
